Reference: patent publication US4855497A, “Novel diamine derivatives” (Chugai Seiyaku Kabushiki Kaisha, priority 1985, dated 1989)

What was measured:
[1] = cited from earlier work
[2] = system: sleeping induced by hexobarbital; assay: Effect on the time of sleeping induced by hexobarbital; format: in vivo, ddY/Slc male rats; details: H3PO4 salt, untreated 53.9 ± 2.7
Description: Effect on the Time of Sleeping Induced by Hexobarbital
A selected compound of the present invention was administered perorally to ddY/Slc male rats (5-6 wk. old, 10 animals per group) in an amount of 50 or 100 mg/kg. One hour later, […] of hexobarbital was administered intraperitoneally to each animal, thereby causing the loss of orthogonal reflex. The time required for the recovery of orthogonal reflex was measured for each animal.
As comparative drugs, 50 or 100 mg/kg of disopyramide and 5 mg/kg of diazepam were administered perorally.

Acetylcholine [3] = assay: Activity against acetylcholine (II): inhibition of acetylcholine-induced saliva excretion; format: in vivo, Beagle dogs; details: dose 100 (g), intra-arterially, 1 min before acetylcholine
Description: Activity Against Acetylcholine (II)
Beagle dogs were anesthetized by intravenous administration of pentobarbital (35 mg/kg). The following experiment was conducted in accordance with the method of Sato et al. (Tohoku J. Exp. Med., 108, 377-388, 1982). The left lower jaw of each animal was incised to identify the submandibular gland, the duct through which saliva was excreted from that gland, and the artery nourishing the same gland. A polyethylene tube was first inserted into the excretory duct. Then, a cannula was inserted into the submandibular gland controlling artery and said gland was perfused with the arterial blood drawn from the femoral artery. The tube from the duct was connected to a drop counter and the number of drops of excreted saliva was recorded. The excretion of saliva was induced by intra-arterial administration of acetylcholine.
One minute before the acetylcholine administration, […] (0.1 ml) of a selected compound was administered intra-arterially and its ability to inhibit saliva excretion was examined.

[4] = system: Aconitine-Induced Arrythmia; assay: Activity against aconitine-induced arrythmia in rats; format: in vivo, Sprague-Dowley male rats; details: aconitine 1 μg/kg/min; for Time required for ventricular extrasystole to occur: untreated 14.3 min; for Time required for ventricular fibrillation to occur: untreated 35.3 min
Description: Activity Against Aconitine-Induced Arrythmia in Rats
Using Sprague-Dowley male rats (9-10 wk. old, two animals per group) weighing about 350 g on average, the following experiment was conducted substantially in compliance with the method of Vargftig et al. (Europ. J. Pharmacol., 6, 49, 1969).
The animals were anesthetized by intraperitoneal administration of 1 g/kg of urethane. A polyethylene cannula was inserted into both the femoral artery and vein of each animal; the drug was administered through the femoral vein while the blood pressure was measured at the femoral artery.
While the aconitine solution was continuously infused into the vein at a rate of 1 μg/kg/min, a selected compound was administered intravenously at 5-minute intervals. In order to prevent the aconitine-induced dyspnea from interfering with the experimental results, 0.2 mg/kg of d-tubocurarine was administered intravenously to each animal, which then was subjected to artificial respiration through a cannula inserted into the trachea (80 breathings/min, with 4 ml of air supplied by a single ventillation).
Identification of arrythmia was made by the ECG in the second induction period; the appearance of a QRS complex with sharply downward deflections was used as an indication of ventricular arrythmia and observation was continued until ventricular fibrillation appeared. The results are shown in Table 3 in terms of the times required for ventricular extrasystole and ventricular fibrillation to occur.

Blood Sugar Level = assay: Effect on blood sugar level; format: in vivo, SD/Slc male rats; details: starved overnight
Description: Effect on Blood Sugar Level
After starving SD/Slc male rats (body weight, 250 g; 6 animals per group) overnight, 20-μl blood samples were drawn from the tail vein of each rat while it was not anesthetized. Records were taken of the sugar level in each blood sample. A selected compound of the present invention was suspended in 3% gum arabic and the suspension was administered perorally to each rat in an amount of 50 or 200 mg/kg. At 2, 4 and 6 hours of the administration, blood samples were taken and their blood sugar levels were measured. Measurements of blood sugar levels were conducted with a New Blood Sugar Test (Boehringer, Mannheim).
To the control group, a 3% gum arabic solution was administered, and diisopyramide was administered as a comparative drug.

Acetylcholine [5] = assay: Activity against acetylcholine (I): inhibition of acetylcholine-induced contraction of isolated ilea; design: species or system SD/Slc male rats; details: 10^-4 M; 10^-6 M acetylcholine; isolated rat ilea
Description: Activity Against Acetylcholine (I)
SD/Slc male rats (10-mo. old, four animals per group) were clubbed dead and their ilea were immediately extracted. The ilea were suspended under a load of 1 g in a Krebs-Henseleit solution oxygenated with a mixture of 95% O2 +5% CO2 at 27° C., and the ileal reaction was measured isotonically.
The anti-cholinergic activity of each of the compounds tested was determined in terms of percent inhibition against the contractive reaction of 10^-6 M of acetylcholine (causing 60-70% of the maximum contractive reaction of acetylcholine).

[6] = system: Ouabain-Induced Arrythmia; assay: Activity against ouabain-induced arrythmia in guinea pigs; format: in vivo, Hartly male guinea pigs; details: ouabain 5 μg/kg/min; for Time required for ventricular extrasystole to occur: untreated 28.5 min; for Time required for ventricular fibrillation to occur: untreated 35.1 min; for Time required for cardiac arrest to occur: untreated 41.2 min
Description: Activity Against Ouabain-Induced Arrythmia in Guinea Pigs
Hartly male guinea pigs (5-6 wk. old, two animals per group) weighing about 350 g on average were anesthetized by intraperitoneal administration of 1.2 g/kg of urethane. A polyethylene cannula was inserted into both the cervical vein and the carotid artery; the drug was administered through the cervical vein while the blood pressure was measured at the carotid artery. A selected test compound was administered 5 minutes before the sustained intravenous infusion of the ouabain solution (5 μg/kg/min) as described in J. Pharmacol. Exp. Ther., 136, 227, 1962). Identification of arrythmia was made by the ECG in the second induction period; the appearance of a QRS complex with sharply downward deflictions was used as an indication of ventricular arrythmia and observation was continued until ventricular fibrillation and cardiac arrest appeared. The results are shown in Table 4 in terms of the times required for ventricular extrasystole, ventricular fibrillation and cardiac arrest to occur.

[7] = system: Chloroform-Induced Arrythmia; assay: Activity against chloroform-induced arrythmia in rats (prevention of ventricular fibrillation); format: in vivo, Sprague-Dowley male rats; details: for Percent prevention (ventricular fibrillation), starved: starved rats
Description: Activity Aganist Chloroform-Induced Arrythmia in Rats
The following procedures were substantially in accordance with the method of Erker and Baker (Arch. Int. Pharmacodyn., 243, 97-102, 1980). Aminophylline (20 mg/kg) was injected intramuscularly into two groups of Sprague-Dowley male rats (3-4 wk. old, 7 animals per group) weighing about 100 g on average, one group having been starved for 24 hours and the other group not starved. Thirty minutes after the injection, the animals were put into a 4,000-ml glass beaker with a lid that contained gauze impregnated with […] of chloroform. Fifty minutes later, the animals were recovered from the beaker and their chests were incised to check their hearts for the presence of ventricular fibrillation. The features of their cardiac rhythm were examined by the electrocardiogram. When no distinct fibrillation was observed, the heart was touched with tweezers. The heart was identified as fibrillar when rapid irregular twitchings occured on the surface of ventricles and continued for at least 5 seconds after chest incision or mechanical stimulation.
Selected compounds suspended in 3% gum arabic were administered in various doses to the rats either intraperitoneally (i.P.) or perorally (P.O.) 30 minutes prior to treatment with chloroform. The percent prevention of ventricular fibrillation was determined for each rat. Only a 3% gum arabic solution was administered to the control group.

CC(C)N(CCC(C(N)=O)(c1ccccc1)c1ccccn1)C(C)C (centres unmarked) [Disopyramide, reference compound]
action on the cardiac muscles ([1]; clinical): inhibitory action on the cardiac muscles | undesirable side effects ([1]; clinical, presumably from anti-cholinergic action): hydrodipsia, anuresis, constipation, vertigo, blurring of vision and vomiting | incidence of anuresis ([1]; patients with prostatomegaly and neurotic bladders due to diabetes): High incidence of anuresis | activity in peroral administration ([1]; peroral, clinical): sustained activity | Time of sleeping (mean ± S.E.) ([2]; 50 mg/kg perorally): 59.8 ± 3.3 min | Time of sleeping (mean ± S.E.) ([2]; 100 mg/kg perorally): 53.5 ± 2.4 min | Percent inhibition (saliva excretion) (Acetylcholine [3]): 41.7% | Time required for ventricular extrasystole to occur ([4]; 10 mg/kg intravenously): 22.6 min | Time required for ventricular fibrillation to occur ([4]; 10 mg/kg intravenously): 78.2 min | Blood sugar level, 0 hr (mean ± S.E.) (Blood Sugar Level; 50 mg/kg perorally): 75.2 ± 5.9 mg/dL | Blood sugar level, 2 hr (mean ± S.E.) (Blood Sugar Level; 50 mg/kg perorally): 46.9 ± 1.7 mg/dL | Blood sugar level, 4 hr (mean ± S.E.) (Blood Sugar Level; 50 mg/kg perorally): 41.9 ± 2.9 mg/dL | Blood sugar level, 6 hr (mean ± S.E.) (Blood Sugar Level; 50 mg/kg perorally): 45.8 ± 2.0 mg/dL | Blood sugar level, 0 hr (mean ± S.E.) (Blood Sugar Level; 200 mg/kg perorally): 64.5 ± 5.6 mg/dL | Blood sugar level, 2 hr (mean ± S.E.) (Blood Sugar Level; 200 mg/kg perorally): 41.7 ± 3.1 mg/dL | Blood sugar level, 4 hr (mean ± S.E.) (Blood Sugar Level; 200 mg/kg perorally): 29.7 ± 3.2 mg/dL | Blood sugar level, 6 hr (mean ± S.E.) (Blood Sugar Level; 200 mg/kg perorally): 36.9 ± 2.6 mg/dL | Percent inhibition (contractive reaction of acetylcholine) (Acetylcholine [5]): 89% | Time required for ventricular extrasystole to occur ([6]; 10 mg/kg via cervical vein): 41.1 min | Time required for ventricular fibrillation to occur ([6]; 10 mg/kg via cervical vein): 54.3 min | Time required for cardiac arrest to occur ([6]; 10 mg/kg via cervical vein): 59.6 min | responders at 10 mg/kg ([7]; Rattus norvegicus, po, 0.5 h, read-out: Percent prevention (ventricular fibrillation), not starved): 37.6% | Percent prevention (ventricular fibrillation), starved ([7]; 10 mg/kg P.O., 30 min prior to chloroform): 49.6%

Cc1cccc(C)c1NC(=O)CCNCCN(C(C)C)C(C)C [Compound No. 1, 3-(diisopropylaminoethylamino)-2',6'-dimethylpropionanilide]
Percent inhibition (saliva excretion) (Acetylcholine [3]): 0% | Time required for ventricular extrasystole to occur ([4]; 5 mg/kg intravenously): 45.2 min | Time required for ventricular fibrillation to occur ([4]; 5 mg/kg intravenously): > 120.0 min | Blood sugar level, 0 hr (mean ± S.E.) (Blood Sugar Level; 50 mg/kg perorally): 68.4 ± 4.0 mg/dL | Blood sugar level, 2 hr (mean ± S.E.) (Blood Sugar Level; 50 mg/kg perorally): 63.0 ± 4.1 mg/dL | Blood sugar level, 4 hr (mean ± S.E.) (Blood Sugar Level; 50 mg/kg perorally): 58.1 ± 2.2 mg/dL | Blood sugar level, 6 hr (mean ± S.E.) (Blood Sugar Level; 50 mg/kg perorally): 59.9 ± 2.6 mg/dL | Blood sugar level, 0 hr (mean ± S.E.) (Blood Sugar Level; 200 mg/kg perorally): 83.7 ± 3.0 mg/dL | Blood sugar level, 2 hr (mean ± S.E.) (Blood Sugar Level; 200 mg/kg perorally): 55.4 ± 5.7 mg/dL | Blood sugar level, 4 hr (mean ± S.E.) (Blood Sugar Level; 200 mg/kg perorally): 73.4 ± 7.2 mg/dL | Blood sugar level, 6 hr (mean ± S.E.) (Blood Sugar Level; 200 mg/kg perorally): 71.2 ± 3.2 mg/dL | Percent inhibition (contractive reaction of acetylcholine) (Acetylcholine [5]): 20% | Time required for ventricular extrasystole to occur ([6]; 5 mg/kg via cervical vein): 42.1 min | Time required for ventricular fibrillation to occur ([6]; 5 mg/kg via cervical vein): 45.4 min | Time required for cardiac arrest to occur ([6]; 5 mg/kg via cervical vein): 51.3 min | responders at 25 mg/kg ([7]; Rattus norvegicus, ip, 0.5 h, not starved rats, 25 mg/kg i.P., 30 min prior to chloroform, read-out: Percent prevention (ventricular fibrillation), not starved): 85.7% | responders at 1 mg/kg ([7]; Rattus norvegicus, po, 0.5 h, not starved rats, 1 mg/kg P.O., 30 min prior to chloroform, read-out: Percent prevention (ventricular fibrillation), not starved): 85.7% | Percent prevention (ventricular fibrillation), starved ([7]; 1 mg/kg P.O., 30 min prior to chloroform): 85.7%
